Assay: recombinant barcode read abundance after kanamycin selection (control-corrected) (log10(CPM+1)); higher = more efficient recombination; sequences stand for … in AGTGCAGAGAAAATCGGCCAGTTTTCTCTGCCTGCAGTCCGCATGCCGT…AGATTTATGCAGCGGACTGCCTTTCTCCCAAAGTGATAAACCGGACAGTATCATGGACCGGTTTTCCCGGTAATCCGTATTTGCAAGGTTGGTTTCACT; site = the 11-nt target
In short: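 Recombination efficiency was calculated from barcode counts at recombinant junctions, normalized to counts per million, averaged and corrected by the control. Each value is given as log10(CPM+1). The constructs were Gibson-cloned oligos (promoter, target, barcode, J23119-driven first 104 bridge RNA bases) in a vector with the remaining 73 bp and a T7-inducible recombinase, co-electroporated into E. coli with a donor plasmid and plated in duplicate on chloramphenicol/ampicillin LB agar (control) or chloramphenicol/ampicillin/kanamycin with 0.1 mM IPTG.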
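Further: IS621 recombinase and bridge RNA in Escherichia coli cells.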

| Sequence | recombinant barcode read abundance (log10) |
| --- | --- |
| CACTAGACTTGGGTTCTAACCTGTTGCCG (site CACTAGACTCG) | 1.37 |
| CACTAGACTTGGGTTCTAACCTGTTGCCG (site GTGACTGCTAC) | 0.242 |
| CACTCCTCTTGGGTTCTAACCTGTTGCTT (site CACTCCTCTAA) | 0.0523 |
| CACTCCTCTTGGGTTCTAACCTGTTGCTT (site CTCTGCTCTAA) | 0.0209 |
| CACTGAGCTTGGGTTCTAACCTGTTGCCT (site CACTGAGCTAG) | 0.845 |
| CACTGAGCTTGGGTTCTAACCTGTTGCCT (site TACTGAGCTAG) | 0.229 |
| CACTGATCTTGGGTTCTAACCTGTTGCCT (site CACTGATCTAG) | 1.28 |
| CACTGATCTTGGGTTCTAACCTGTTGCCT (site CACTGCTCTAG) | 0.0175 |
| CACTGATCTTGGGTTCTAACCTGTTGCCT (site CACTGGTCTAG) | 0.281 |
| CACTGATCTTGGGTTCTAACCTGTTGCCT (site CACTGTTCTAG) | 0.302 |
| CACTTTGCTTGGGTTCTAACCTGTTGCCT (site AGGGAGACTGA) | 0.145 |
| CACTTTGCTTGGGTTCTAACCTGTTGCCT (site CACTTTGCTAG) | 0.207 |
| CAGAATCCTTGGGTTCTAACCTGTTGCGG (site CAGAATCCTCC) | 1.73 |
| CAGAATCCTTGGGTTCTAACCTGTTGCGG (site TCTCTCGCTAG) | 0.0949 |
| CAGACGACTTGGGTTCTAACCTGTTGCCA (site CAGACGACTTG) | 0.37 |
| CAGACGACTTGGGTTCTAACCTGTTGCCA (site TGCTGTCCTAA) | 0.0664 |
| CAGAGATCTTGGGTTCTAACCTGTTGCTT (site CAAAGATCTAA) | 0.328 |
| CAGAGATCTTGGGTTCTAACCTGTTGCTT (site CACAGATCTAA) | 0.137 |
| CAGAGATCTTGGGTTCTAACCTGTTGCTT (site CAGAGATCTAA) | 1.33 |
| CAGAGATCTTGGGTTCTAACCTGTTGCTT (site CATAGATCTAA) | 0.104 |
| CAGAGCTCTTGGGTTCTAACCTGTTGCCG (site AGACAGACTAC) | 0.078 |
| CAGAGCTCTTGGGTTCTAACCTGTTGCCG (site CAGAGCTCTCG) | 2.05 |

| Sequence | recombinant barcode read abundance (log10) |
| --- | --- |
| CAGAGTCCTTGGGTTCTAACCTGTTGCAT (site CAGAGTCCTAG) | 0.852 |
| CAGAGTCCTTGGGTTCTAACCTGTTGCAT (site CAGAGTCCTAT) | 1.88 |
| CAGATTCCTTGGGTTCTAACCTGTTGCCT (site CAGATTCCTAG) | 0.542 |
| CAGATTCCTTGGGTTCTAACCTGTTGCCT (site GAGATTCCTAG) | 0.222 |
| CAGCCACCTTGGGTTCTAACCTGTTGCCT (site AAGCCACCTAG) | 0.0775 |
| CAGCCACCTTGGGTTCTAACCTGTTGCCT (site CAGCCACCTAG) | 1.4 |
| CAGCCACCTTGGGTTCTAACCTGTTGCCT (site GAGCCACCTAG) | 0.0262 |
| CAGCCACCTTGGGTTCTAACCTGTTGCCT (site TAGCCACCTAG) | 0 |
| CAGCGGTCTTGGGTTCTAACCTGTTGCGA (site CAGCGGTCTTC) | 1.65 |
| CAGCGGTCTTGGGTTCTAACCTGTTGCGA (site TTATACACTCT) | 0.0232 |
| CAGCTAACTTGGGTTCTAACCTGTTGCCT (site CAAATAACTAG) | 0.0162 |
| CAGCTAACTTGGGTTCTAACCTGTTGCCT (site CAGCTAACTAG) | 1.54 |
| CAGGCGCCTTGGGTTCTAACCTGTTGCCT (site CAGGCGACTAG) | 0.335 |
| CAGGCGCCTTGGGTTCTAACCTGTTGCCT (site CAGGCGCCTAG) | 0.979 |
| CAGGCGCCTTGGGTTCTAACCTGTTGCCT (site CAGGCGGCTAG) | 0.178 |
| CAGGCGCCTTGGGTTCTAACCTGTTGCCT (site CAGGCGTCTAG) | 0.527 |
| CAGGCGTCTTGGGTTCTAACCTGTTGCCT (site CAGGCGACTAG) | 0.109 |
| CAGGCGTCTTGGGTTCTAACCTGTTGCCT (site CAGGCGCCTAG) | 0.289 |
| CAGGCGTCTTGGGTTCTAACCTGTTGCCT (site CAGGCGGCTAG) | 0.111 |
| CAGGCGTCTTGGGTTCTAACCTGTTGCCT (site CAGGCGTCTAG) | 0.59 |
| CAGGGGACTTGGGTTCTAACCTGTTGCCG (site CAAGGGACTCC) | 0.177 |

Reference: the supplement of paper PMC11208160
